This note sets out measurements from patent US7838464B2, “Method for yield improvement in glyphosate-resistent legumes” (priority 2002, dated 2010).

In this test the test system is soya variety NIDERA AX 4910. Nature of the test: Field experiments: yield of glyphosate-resistant soya after foliar treatment. It is filed as in vivo. The method, then: The results shown hereinbelow were obtained in experiments in the, open which were carried out during the […] season in the Argentinian northern pampas. The plots used were arranged randomly relative to one another. Each treatment variant was replicated-four times. The crop plant used was the soya variety NIDERA AX 4910, which is resistant to numerous fungal diseases and to the herbicide glyphosate.
In all 5 experiments, two foliar treatments with glyphosate were carried out 30 or 60 days after planting the soya seeds, using equipment conventionally used under practice conditions. In the experiments 2 and 3, pyraclostrobin was added at “30 days after planting”, while pyraclostrobin was added at “60 days after planting” in the experiments 4 and 5.

Take `O=C(O)CNCP(=O)(O)O` [glyphosate, N-(phosphonomethyl)glycine]: the Yield (experiment 1: glyphosate 360 g a.s./ha at 30 and at 60 days after planting, no pyraclostrobin, open field, 4 replicates) stood at 100%. Regarding pyraclostrobin, the “yield in comparison with the conventional use of glyphosate alone” value (addition of pyraclostrobin 50 or 100 g a.s./ha to glyphosate at early (30 days) and late (60 days) treatment times) is given as “markedly increased the yield”.
